# Measurements from patent US20040197321A1, “Composition and method to prevent or reduce diarrhea and steatorrhea in HIV patients” (priority 2002, published 2004).
# Entries after “also recorded” stand apart in the source; their conditions may differ. Counter-ions that a name gives are not always drawn. Like-named read-outs stand apart in the source and are kept apart here.
# Tests used:
# [1] = molecular target: T1, USP Reference Standard Pancrelipase (Sus scrofa, UniProt P00591); test: Lipase assay (USP titrimetric): inhibition of pancrelipase at pH 9.0; type: biochemical
# T1 sequence (P00591 1-450): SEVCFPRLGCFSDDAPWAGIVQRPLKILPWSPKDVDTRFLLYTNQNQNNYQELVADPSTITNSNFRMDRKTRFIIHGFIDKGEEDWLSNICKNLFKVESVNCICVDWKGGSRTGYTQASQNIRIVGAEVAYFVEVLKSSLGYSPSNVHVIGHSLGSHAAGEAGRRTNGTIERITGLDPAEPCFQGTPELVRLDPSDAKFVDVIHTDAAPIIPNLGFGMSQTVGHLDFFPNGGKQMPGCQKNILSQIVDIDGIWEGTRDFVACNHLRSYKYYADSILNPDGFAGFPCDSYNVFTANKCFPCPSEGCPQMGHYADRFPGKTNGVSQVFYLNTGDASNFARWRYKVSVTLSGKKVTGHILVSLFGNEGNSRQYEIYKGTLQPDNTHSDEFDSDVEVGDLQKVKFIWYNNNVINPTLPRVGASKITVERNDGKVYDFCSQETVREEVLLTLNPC
# Experimental: (§1) The enzyme sources consisted of USP Reference Standard Pancrelipase, USP Reference Standard Trypsin, colipase (Sigma Chemical Co.), and enterokinase (ICN Biochemicals). Appropriate concentrations of enzyme reference standard were prepared in cold distilled water, as described in USP reference assay procedures. The Infectious Disease Clinic in Somerville, N.J. provided the HAART medications. Pure drugs could not be obtained so commercial drug preparations were used in the assays. […] Appropriate concentrations of HAART drug, drug cocktails, and excipients were prepared in distilled water and reagent-grade methanol (Aldrich, Milwaukee, Wis.) or DMSO (Aldrich, Milwaukee, Wis.).
# One unit (U) of lipase activity is defined as the amount of enzyme that liberates one μequivalent of free fatty acid from triglycerides per minute at pH 9.0 and 37° C. Lipase activity (U/mg) was determined by a lipase specific titrimetric assay described in the United States Pharmacopeia (USP), Volume XXII. In brief, the substrate consists of 10% olive oil in acacia solution, 40-mg/mL sodium taurocholate, 0.075M calcium chloride, 0.05M Tris in 3.0M NaCl buffer solution (pH 7.5) and distilled water. The emulsified substrate is incubated at 37° C. and brought to pH 9.0 with 0.02N NaOH. At time zero, 1.0 mL of enzyme solution was added. A pH stat autotitrator was used to maintain pH 9.0 and the volume of 0.02 N NaOH dispensed per unit time was recorded for five (5) minutes. From the initial slope of this plot, lipase activity was calculated using the following equation:
# U/mg=slope (mL of NaOH dispensed/min)×N of NaOH×1000 /mg of enzyme assayed
# HAART drug solutions were mixed with the substrate prior to incubation and addition of enzyme.
# pancrelipase [2] = molecular target: T2, pancrelipase (Sus scrofa, UniProt P00591); test: Pancrelipase reactivation by colipase; type: biochemical; details: for % Lipase Activity with Colipase: colipase 5 μg/mL
# T2 construct: Sigma Chemical Co. (colipase)
# T2 sequence (P00591 1-450): T1 sequence (P00591 1-450)
# Experimental: Junge et al., described the procedure for the reactivation of lipase by colipase. In brief, the above lipase assay procedure was used with the following variation: colipase solution replaced the distilled water so the concentration of colipase in the final reaction mixture was 5 μg/mL.
# pancrelipase [3] = test: Recovery of pancrelipase activity after inhibition, by addition of excess lipase; type: biochemical
# Experimental: The above procedure was used to monitor pancrelipase activity with the exception that drug was not preincubated with the substrate. At time zero 1.0 mL of pancrelipase was added to initiate the reaction. At five (5) minutes, 1.0 mL of HAART drug solution was added to the reaction mixture to cause inhibition of lipase activity. At twelve (12) minutes an additional 1.0 mL of pancrelipase was added to the reaction mixture to overcome HAART inhibition. The reaction was monitored for twenty (20) minutes.
# [4] = molecular target: T3, USP Reference Standard Trypsin (Bos taurus, UniProt P00760); test: Trypsin assay (spectrophotometric); type: biochemical; details: NRTI; drug 2.1*10^-4M (Drug Tested 44-141 μg/mL); trypsin 7.6 μg/mL; 25° C.
# T3 sequence (P00760 24-246): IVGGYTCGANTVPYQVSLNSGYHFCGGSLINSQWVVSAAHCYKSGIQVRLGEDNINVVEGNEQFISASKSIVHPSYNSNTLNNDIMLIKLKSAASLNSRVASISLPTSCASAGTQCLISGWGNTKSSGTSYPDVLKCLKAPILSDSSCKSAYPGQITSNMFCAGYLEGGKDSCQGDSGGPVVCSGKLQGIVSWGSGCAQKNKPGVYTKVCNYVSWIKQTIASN
# Experimental: as §1, with “Appropriate” for “The enzyme sources consisted of USP Reference Standard Pancrelipase, USP Reference Standard Trypsin, colipase (Sigma Chemical Co.), and enterokinase (ICN Biochemicals). Appropriate”
# HIV patients = details: Kakuda et al. 1998; cited from earlier work
# [5] = pH 9.0, read-out: IC50 for inhibitors of pancrelipase (converted)
compound,measurement,setting,value
Vitamin E,% Inhibition of Pancrelipase,"[1]; pH 9.0, Wt % Excipient in Source Used 50",20%
"CCCCCCCCCCC[C@@H](C[C@@H]1OC(=O)[C@H]1CCCCCC)OC(=O)[C@H](CC(C)C)NC=O [ORLISTAT, Orlistat, reference compound]",effect of added colipase on the inhibition of pancrelipase (in words),pancrelipase [2],no effect
same,% Lipase Activity No Colipase,pancrelipase [2]; Drug Conc. 0.002 mg/mL,37%
same,% Lipase Activity with Colipase,pancrelipase [2]; Drug Conc. 0.002 mg/mL,29%
"Cc1c(O)cccc1C(=O)N[C@@H](CSc1ccccc1)[C@H](O)CN1C[C@H]2CCCC[C@H]2C[C@H]1C(=O)NC(C)(C)C [VIRACEPT ®, Nelfinavir mesylate]",IC50,[1]; [5],780 µM
D-α-tocopheryl polyethylene glycol 1000 succinate [TPGS],inhibition of pancrelipase (in words),[1],significantly inhibited; also recorded: significant inhibition
same,IC50 for inhibitors of pancrelipase,[1]; pH 9.0,275 µg/mL
same,% Inhibition of Pancrelipase,"[1]; pH 9.0, Wt % Excipient in Source Used 0.2",6%
same,% Inhibition of Pancrelipase,"[1]; pH 9.0, Wt % Excipient in Source Used 0.5",43%
same,% Inhibition of Pancrelipase,"[1]; pH 9.0, Wt % Excipient in Source Used 1",79%
same,% Inhibition of Pancrelipase,"[1]; pH 9.0, Wt % Excipient in Source Used 2",93%
same,% Inhibition of Pancrelipase,"[1]; pH 9.0, Wt % Excipient in Source Used 4",95%
same,% Inhibition of Pancrelipase,"[1]; pH 9.0, Wt % Excipient in Source Used 20",96%
same,IC50,[1]; [5],182 µM
same,effect of added colipase on the inhibition of pancrelipase (in words),pancrelipase [2],reversed; also recorded: restored pancrelipase activity
same,% Lipase Activity No Colipase,pancrelipase [2]; Drug Conc. 10.0 mg/mL,21%
same,% Lipase Activity with Colipase,pancrelipase [2]; Drug Conc. 10.0 mg/mL,79%
same,effect of addition of excess lipase on the inhibition of pancrelipase (in words),pancrelipase [3],can be overcome
same,% Reactivation of Pancrelipase,pancrelipase [3]; after addition of excess lipase (additional 1.0 mL pancrelipase at 12 minutes),98%
same,% Pancrelipase Activity,"pancrelipase [3]; drug inhibited, before addition of excess lipase",55%
"Nc1ccn([C@H]2CC[C@@H](CO)O2)c(=O)n1 [Zalcitabine USP Ref. STND, 2′,3′-Dideoxycytidine]",Inhibition of Tryspin,[4],0%
"Cc1c(O)cccc1C(=O)N[C@@H](CSc1ccccc1)[C@H](O)CN1C[C@H]2CCCC[C@H]2C[C@H]1C(=O)NC(C)(C)C [nelfinavir, 2-[2′-hydroxy-3′-phenylthiomethyl-4′-aza-5′-oxo-5′-(2″-methyl-3″-hydroxyphenyl)pentyl]decahydroisoquinoline-3-N-t-butyl-carboxamide]",HIV patients who experience diarrhea,HIV patients,12-20%
"CC(C)(C)NC(=O)[C@@H]1C[C@@H]2CCCC[C@@H]2CN1C[C@@H](O)[C@H](Cc1ccccc1)NC(=O)[C@H](CC(N)=O)NC(=O)c1ccc2ccccc2n1 [FORTOVASE ®, Saquinavir]",IC50,"[1]; IC50 for inhibitors of pancrelipase, pH 9.0",3230 µM
